Measurements reported in ChEMBL document CHEMBL4507295 (2021).

Tests used:
[1] = target: Epidermal growth factor receptor (Homo sapiens) (UniProt P00533); experiment: Inhibition of Epidermal Growth Factor (EGF) at 10 µM in the Eurofins-Panlabs radioligand binding assay (Eurofins_assay_225510); conditions: Compound concentration 10.0 uM
[2] = target: ATP-sensitive inward rectifier potassium channel 11 (Cricetulus griseus) (UniProt A0A3L7HHE1); experiment: Inhibition of Potassium Channel [KATP] at 10 µM in the Eurofins-Panlabs radioligand binding assay (Eurofins_assay_265600); conditions: Cricetinae; Compound concentration 10.0 uM
Caspase-1 (Homo sapiens) = Caspase-1 (Homo sapiens) (UniProt P29466); experiment: Inhibition of Peptidase, CASP1 (Caspase 1) at 10 µM in the Eurofins-Panlabs enzyme assay (Eurofins_assay_163000); conditions: Compound concentration 10.0 uM
Chain of Caspase-1 (Homo sapiens) (P29466 120-297 limits assumed): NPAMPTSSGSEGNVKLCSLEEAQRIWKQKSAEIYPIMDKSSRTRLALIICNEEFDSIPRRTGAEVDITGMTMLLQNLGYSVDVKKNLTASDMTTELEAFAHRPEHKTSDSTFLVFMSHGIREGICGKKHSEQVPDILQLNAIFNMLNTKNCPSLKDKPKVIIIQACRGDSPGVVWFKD
Chain of Caspase-1 (Homo sapiens) (P29466 317-404 limits assumed): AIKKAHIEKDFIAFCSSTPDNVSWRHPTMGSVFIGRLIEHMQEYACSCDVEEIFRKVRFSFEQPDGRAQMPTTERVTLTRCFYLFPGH

[3] = target: Interstitial collagenase (Homo sapiens) (UniProt P03956); experiment: Inhibition of Peptidase, Matrix Metalloproteinase-1 (MMP-1) at 10 µM in the Eurofins-Panlabs enzyme assay (Eurofins_assay_114110); conditions: Compound concentration 10.0 uM
Chain of Interstitial collagenase (Homo sapiens) (P03956 whole entry): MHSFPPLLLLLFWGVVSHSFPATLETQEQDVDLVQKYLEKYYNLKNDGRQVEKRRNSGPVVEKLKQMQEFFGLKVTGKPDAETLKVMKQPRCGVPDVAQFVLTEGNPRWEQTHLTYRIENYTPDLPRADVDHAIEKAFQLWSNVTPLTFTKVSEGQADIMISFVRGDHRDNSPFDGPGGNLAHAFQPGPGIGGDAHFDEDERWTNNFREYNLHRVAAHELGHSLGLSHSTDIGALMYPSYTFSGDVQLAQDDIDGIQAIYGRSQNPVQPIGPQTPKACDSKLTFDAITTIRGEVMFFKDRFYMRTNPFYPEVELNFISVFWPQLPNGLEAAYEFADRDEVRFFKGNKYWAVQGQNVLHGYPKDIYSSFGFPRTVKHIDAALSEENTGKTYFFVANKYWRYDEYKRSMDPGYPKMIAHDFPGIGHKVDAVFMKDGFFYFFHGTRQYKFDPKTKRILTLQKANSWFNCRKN

[4] = target: Alpha-2C adrenergic receptor (Homo sapiens) (UniProt P18825); experiment: Adrenergic alpha2C Eurofins-Panlabs radioligand binding assay; set-up: ligand concentration 1 nM, non-specific ligand with concentration 10 µM WB-4101, incubation time 60 min, incubation temperature 25 °C; conditions: Compound concentration 10.0 uM
[5] = target: 5-hydroxytryptamine receptor 4 (Homo sapiens) (UniProt Q13639); experiment: Inhibition of Serotonin (5-Hydroxytryptamine) 5-HT4 at 10 µM in the Eurofins-Panlabs radioligand binding assay (Eurofins_assay_272000); conditions: Cavia porcellus; Compound concentration 10.0 uM
[6] = target: Delta-type opioid receptor (Homo sapiens) (UniProt P41143); experiment: Opiate delta (OP1, DOP) Eurofins-Panlabs radioligand binding assay; conditions: Compound concentration 10.0 uM
[7] = target: Cathepsin G (Homo sapiens) (UniProt P08311); experiment: Inhibition of Peptidase, CTSG (Cathepsin G) at 10 µM in the Eurofins-Panlabs enzyme assay (Eurofins_assay_112510); set-up: substrate with concentration; conditions: Compound concentration 10.0 uM
Bos taurus = species: Bos taurus; experiment: Protein Serine/Threonine Kinase, PKA, Non-Selective Eurofins-Panlabs enzyme assay; type: protein-complex assay; set-up: substrate with concentration 370 µg/mL Histone Type III-S, incubation time 15 min, incubation temperature 25 °C; conditions: Compound concentration 100.0 uM
Rattus norvegicus [8] = species: Rattus norvegicus; experiment: Protein Serine/Threonine Kinase, PKC, Non-Selective Eurofins-Panlabs enzyme assay; conditions: Compound concentration 10.0 uM
[9] = target: Tyrosine 3-monooxygenase (Homo sapiens) (UniProt P07101); experiment: Tyrosine Hydroxylase Eurofins-Panlabs enzyme assay; set-up: substrate with concentration; conditions: Rattus norvegicus; Compound concentration 10.0 uM
[10] = target: Nociceptin receptor (Homo sapiens) (UniProt P41146); experiment: Orphanin ORL1 Eurofins-Panlabs radioligand binding assay; conditions: Compound concentration 10.0 uM
[11] = target: Peroxisome proliferator-activated receptor alpha (Homo sapiens) (UniProt Q07869); experiment: PPARalpha Eurofins-Panlabs radioligand binding assay; conditions: Compound concentration 10.0 uM
[12] = target: High affinity choline transporter 1 (Homo sapiens) (UniProt Q9GZV3); experiment: Transporter, Choline Eurofins-Panlabs radioligand binding assay; set-up: ligand concentration 0.75 nM; conditions: Rattus norvegicus; Compound concentration 10.0 uM
Chain of High affinity choline transporter 1 (Homo sapiens) (Q9GZV3 whole entry): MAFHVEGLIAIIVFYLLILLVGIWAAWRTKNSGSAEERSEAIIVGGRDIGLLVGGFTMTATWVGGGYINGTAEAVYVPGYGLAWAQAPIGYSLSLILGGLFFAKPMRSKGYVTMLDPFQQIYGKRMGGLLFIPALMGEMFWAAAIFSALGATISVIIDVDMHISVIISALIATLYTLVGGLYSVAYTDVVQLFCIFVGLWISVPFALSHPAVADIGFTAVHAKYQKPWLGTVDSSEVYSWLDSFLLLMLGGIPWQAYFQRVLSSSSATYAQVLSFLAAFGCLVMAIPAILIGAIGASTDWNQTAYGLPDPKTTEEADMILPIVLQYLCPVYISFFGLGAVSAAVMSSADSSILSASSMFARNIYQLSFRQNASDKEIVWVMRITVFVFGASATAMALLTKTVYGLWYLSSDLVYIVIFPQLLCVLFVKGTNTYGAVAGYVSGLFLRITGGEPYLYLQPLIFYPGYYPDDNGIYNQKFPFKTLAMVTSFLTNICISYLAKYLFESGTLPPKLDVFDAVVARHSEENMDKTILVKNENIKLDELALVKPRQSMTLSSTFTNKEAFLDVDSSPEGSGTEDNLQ

Caspase-6 (Homo sapiens) = Caspase-6 (Homo sapiens) (UniProt P55212); experiment: Peptidase, CASP6 (Caspase 6) Eurofins-Panlabs enzyme assay; set-up: substrate with concentration; conditions: Compound concentration 10.0 uM
[13] = target: Neutrophil elastase (Homo sapiens) (UniProt P08246); experiment: Peptidase, ELA2 (Neutrophil Elastase 2) Eurofins-Panlabs enzyme assay; conditions: Compound concentration 10.0 uM
Homo sapiens [14] = species: Homo sapiens; experiment: Protein Serine/Threonine Kinase, MAPK14 (p38α) Eurofins-Panlabs enzyme assay; set-up: substrate with concentration 10 µg/mL Myelin Basic Protein (MBP), incubation time 60 min, incubation temperature 25 °C; conditions: Compound concentration 10.0 uM
[15] = target: Protein kinase C alpha type (Homo sapiens, UniProt P17252); experiment: Inhibition of Protein Serine/Threonine Kinase, PRKCA (PKCα) at 10 µM in the Eurofins-Panlabs enzyme assay (Eurofins_assay_180010); set-up: substrate with concentration Histone, incubation time 10 min, incubation temperature 25 °C
[16] = target: Epidermal growth factor receptor (Homo sapiens) (UniProt P00533); experiment: Protein Tyrosine Kinase, EGF Receptor Eurofins-Panlabs enzyme assay; set-up: substrate with concentration 10 µg/mL Poly(Glu:Tyr), incubation time 60 min, incubation temperature 25 °C; conditions: Compound concentration 10.0 uM
[17] = target: Vascular endothelial growth factor receptor 1 (Homo sapiens) (UniProt P17948); experiment: Protein Tyrosine Kinase, FLT1 (VEGFR-1) Eurofins-Panlabs enzyme assay; conditions: Compound concentration 10.0 uM
[18] = target: Bombesin receptor (Rattus norvegicus) (UniProt P52500+P24053+Q8K418); experiment: Bombesin, Non-Selective Eurofins-Panlabs radioligand binding assay; type: protein assay; conditions: Compound concentration 10.0 uM
[19] = target: B1 bradykinin receptor (Homo sapiens) (UniProt P46663); experiment: Bradykinin B1 Eurofins-Panlabs radioligand binding assay; conditions: Compound concentration 10.0 uM
Chain of B1 bradykinin receptor (Homo sapiens) (P46663 whole entry): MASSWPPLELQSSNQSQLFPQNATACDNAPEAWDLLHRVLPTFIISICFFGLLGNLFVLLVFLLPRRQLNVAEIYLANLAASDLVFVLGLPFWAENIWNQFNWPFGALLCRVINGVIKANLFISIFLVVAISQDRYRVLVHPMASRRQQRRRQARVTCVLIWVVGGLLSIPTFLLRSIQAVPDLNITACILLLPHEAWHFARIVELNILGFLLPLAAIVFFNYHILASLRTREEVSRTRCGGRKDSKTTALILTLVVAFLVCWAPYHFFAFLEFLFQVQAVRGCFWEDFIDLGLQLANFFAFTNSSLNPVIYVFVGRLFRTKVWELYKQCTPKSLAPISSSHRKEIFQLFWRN

[20] = target: C-C chemokine receptor type 1 (Homo sapiens) (UniProt P32246); experiment: Chemokine CCR1 Eurofins-Panlabs radioligand binding assay; conditions: Compound concentration 10.0 uM
Homo sapiens [21] = species: Homo sapiens; experiment: Cholecystokinin CCK2 (CCKB) Eurofins-Panlabs radioligand binding assay; set-up: ligand concentration 0.072 nM, non-specific ligand with concentration 1 µM Sincalide, incubation time 3 h, incubation temperature 25 °C; conditions: Compound concentration 10.0 uM
Homo sapiens [22] = species: Homo sapiens; experiment: Estrogen ERbeta Eurofins-Panlabs radioligand binding assay; conditions: Compound concentration 10.0 uM
[23] = target: Galanin receptor type 1 (Homo sapiens) (UniProt P47211); experiment: Galanin GAL1 Eurofins-Panlabs radioligand binding assay; conditions: Compound concentration 10.0 uM
Chain of Galanin receptor type 1 (Homo sapiens) (P47211 whole entry): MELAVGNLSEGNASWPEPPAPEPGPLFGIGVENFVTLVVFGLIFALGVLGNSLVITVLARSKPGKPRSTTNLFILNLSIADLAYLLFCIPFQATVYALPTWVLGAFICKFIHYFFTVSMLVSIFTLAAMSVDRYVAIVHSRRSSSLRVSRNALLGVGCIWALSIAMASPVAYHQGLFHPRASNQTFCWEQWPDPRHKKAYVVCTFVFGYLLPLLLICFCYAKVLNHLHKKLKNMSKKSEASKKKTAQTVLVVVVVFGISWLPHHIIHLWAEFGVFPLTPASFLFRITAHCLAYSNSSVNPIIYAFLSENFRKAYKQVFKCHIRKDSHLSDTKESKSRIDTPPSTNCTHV

Rattus norvegicus [24] = species: Rattus norvegicus; experiment: Potassium Channel [SKCA] Eurofins-Panlabs radioligand binding assay; set-up: ligand concentration 0.005 nM; conditions: Compound concentration 10.0 uM
[25] = target: Sodium-dependent serotonin transporter (Homo sapiens) (UniProt P31645); experiment: Transporter, Serotonin (5- Hydroxytryptamine) (SERT) Eurofins-Panlabs radioligand binding assay; set-up: ligand concentration 0.15 nM, non-specific ligand with concentration 10 µM Imipramine, incubation time 3 h, incubation temperature 4 °C; conditions: Compound concentration 10.0 uM
Chain of Sodium-dependent serotonin transporter (Homo sapiens) (P31645 whole entry, looked up): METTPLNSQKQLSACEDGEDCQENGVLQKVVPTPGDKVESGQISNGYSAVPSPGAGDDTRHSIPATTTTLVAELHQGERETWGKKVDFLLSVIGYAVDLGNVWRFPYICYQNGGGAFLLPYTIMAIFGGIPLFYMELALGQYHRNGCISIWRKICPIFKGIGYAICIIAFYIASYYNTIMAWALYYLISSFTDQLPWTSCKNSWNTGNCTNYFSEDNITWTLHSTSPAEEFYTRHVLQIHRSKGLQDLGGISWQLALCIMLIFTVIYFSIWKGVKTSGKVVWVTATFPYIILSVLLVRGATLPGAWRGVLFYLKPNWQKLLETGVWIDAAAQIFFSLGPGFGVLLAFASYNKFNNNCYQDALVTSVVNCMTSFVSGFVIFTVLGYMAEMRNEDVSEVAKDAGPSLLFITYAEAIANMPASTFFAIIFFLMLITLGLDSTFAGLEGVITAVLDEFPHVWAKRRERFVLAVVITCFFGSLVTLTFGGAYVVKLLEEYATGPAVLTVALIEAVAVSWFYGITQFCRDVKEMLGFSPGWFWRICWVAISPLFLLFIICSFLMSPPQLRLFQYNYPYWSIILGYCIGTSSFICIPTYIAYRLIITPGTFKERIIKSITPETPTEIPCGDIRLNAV

[26] = target: T1, Muscarinic acetylcholine receptor M1 (Homo sapiens) (UniProt P11229); experiment: Agonism inflection point assay
T1 sequence (whole entry): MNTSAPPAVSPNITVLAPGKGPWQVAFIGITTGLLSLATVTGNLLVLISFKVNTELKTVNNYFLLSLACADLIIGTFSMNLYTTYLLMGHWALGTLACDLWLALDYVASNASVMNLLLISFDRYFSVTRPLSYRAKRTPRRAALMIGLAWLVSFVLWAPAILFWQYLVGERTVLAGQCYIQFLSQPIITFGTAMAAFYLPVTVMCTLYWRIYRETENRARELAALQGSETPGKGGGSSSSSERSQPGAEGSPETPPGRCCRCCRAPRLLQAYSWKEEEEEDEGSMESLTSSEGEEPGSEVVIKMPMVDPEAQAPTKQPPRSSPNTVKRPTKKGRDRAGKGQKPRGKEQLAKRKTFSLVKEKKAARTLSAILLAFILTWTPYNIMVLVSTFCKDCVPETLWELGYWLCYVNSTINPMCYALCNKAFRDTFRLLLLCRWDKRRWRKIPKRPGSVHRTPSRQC

[27] = target: GABA-A receptor; alpha-5/beta-3/gamma-2 (Homo sapiens) (UniProt P18507+P28472+P31644); experiment: GABA-alpha5beta3gamma2 Eurofins-Panlabs radioligand binding assay; type: protein-complex assay; set-up: ligand concentration 1 nM; conditions: Compound concentration 10.0 uM
[28] = target: Muscarinic acetylcholine receptor M2 (Homo sapiens) (UniProt P08172); conditions: Compound concentration 10.0 uM
[29] = target: D(1A) dopamine receptor (Homo sapiens) (UniProt P21728); conditions: Compound concentration 10.0 uM
[30] = target: D(2) dopamine receptor (Homo sapiens) (UniProt P14416); conditions: Compound concentration 10.0 uM
Chain of D(2) dopamine receptor (Homo sapiens) (P14416 whole entry): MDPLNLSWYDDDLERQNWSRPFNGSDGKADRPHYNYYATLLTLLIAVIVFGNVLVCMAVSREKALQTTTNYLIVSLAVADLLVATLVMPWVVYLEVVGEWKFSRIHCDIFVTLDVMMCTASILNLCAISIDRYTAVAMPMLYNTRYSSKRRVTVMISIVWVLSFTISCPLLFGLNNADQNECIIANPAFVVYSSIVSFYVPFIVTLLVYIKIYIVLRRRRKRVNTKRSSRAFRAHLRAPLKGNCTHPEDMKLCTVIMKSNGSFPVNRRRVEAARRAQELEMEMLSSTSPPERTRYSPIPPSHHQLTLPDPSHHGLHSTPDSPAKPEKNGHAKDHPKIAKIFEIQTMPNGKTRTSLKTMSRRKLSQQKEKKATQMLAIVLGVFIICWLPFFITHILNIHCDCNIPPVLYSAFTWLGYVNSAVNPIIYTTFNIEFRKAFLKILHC

[31] = target: Muscarinic acetylcholine receptor M3 (Homo sapiens) (UniProt P20309); conditions: Compound concentration 10.0 uM
Chain of Muscarinic acetylcholine receptor M3 (Homo sapiens) (P20309 whole entry, looked up): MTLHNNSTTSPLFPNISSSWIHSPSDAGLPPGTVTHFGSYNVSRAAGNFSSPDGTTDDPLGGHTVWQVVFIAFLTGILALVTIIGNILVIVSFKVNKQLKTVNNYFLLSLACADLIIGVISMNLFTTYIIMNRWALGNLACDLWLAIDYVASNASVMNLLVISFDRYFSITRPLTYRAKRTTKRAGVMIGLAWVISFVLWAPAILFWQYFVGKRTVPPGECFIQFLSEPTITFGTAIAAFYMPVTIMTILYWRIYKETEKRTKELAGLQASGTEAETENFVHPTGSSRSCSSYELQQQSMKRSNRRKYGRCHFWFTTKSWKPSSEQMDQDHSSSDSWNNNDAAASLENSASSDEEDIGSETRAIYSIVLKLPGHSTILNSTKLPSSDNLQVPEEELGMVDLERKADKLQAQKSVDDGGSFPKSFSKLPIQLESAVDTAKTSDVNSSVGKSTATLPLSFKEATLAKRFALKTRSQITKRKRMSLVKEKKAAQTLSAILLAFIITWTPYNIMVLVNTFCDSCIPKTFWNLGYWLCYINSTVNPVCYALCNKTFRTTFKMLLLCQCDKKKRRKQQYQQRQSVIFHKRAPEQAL

[32] = target: Sodium-dependent dopamine transporter (Homo sapiens) (UniProt Q01959); conditions: Compound concentration 10.0 uM
[33] = target: cGMP-specific 3',5'-cyclic phosphodiesterase (Homo sapiens) (UniProt O76074); conditions: Compound concentration 100.0 uM
[34] = target: Glutamate receptor 2 (Homo sapiens) (UniProt P42262); conditions: Rattus norvegicus; Compound concentration 10.0 uM

Chain of Epidermal growth factor receptor (Homo sapiens) (P00533 whole entry): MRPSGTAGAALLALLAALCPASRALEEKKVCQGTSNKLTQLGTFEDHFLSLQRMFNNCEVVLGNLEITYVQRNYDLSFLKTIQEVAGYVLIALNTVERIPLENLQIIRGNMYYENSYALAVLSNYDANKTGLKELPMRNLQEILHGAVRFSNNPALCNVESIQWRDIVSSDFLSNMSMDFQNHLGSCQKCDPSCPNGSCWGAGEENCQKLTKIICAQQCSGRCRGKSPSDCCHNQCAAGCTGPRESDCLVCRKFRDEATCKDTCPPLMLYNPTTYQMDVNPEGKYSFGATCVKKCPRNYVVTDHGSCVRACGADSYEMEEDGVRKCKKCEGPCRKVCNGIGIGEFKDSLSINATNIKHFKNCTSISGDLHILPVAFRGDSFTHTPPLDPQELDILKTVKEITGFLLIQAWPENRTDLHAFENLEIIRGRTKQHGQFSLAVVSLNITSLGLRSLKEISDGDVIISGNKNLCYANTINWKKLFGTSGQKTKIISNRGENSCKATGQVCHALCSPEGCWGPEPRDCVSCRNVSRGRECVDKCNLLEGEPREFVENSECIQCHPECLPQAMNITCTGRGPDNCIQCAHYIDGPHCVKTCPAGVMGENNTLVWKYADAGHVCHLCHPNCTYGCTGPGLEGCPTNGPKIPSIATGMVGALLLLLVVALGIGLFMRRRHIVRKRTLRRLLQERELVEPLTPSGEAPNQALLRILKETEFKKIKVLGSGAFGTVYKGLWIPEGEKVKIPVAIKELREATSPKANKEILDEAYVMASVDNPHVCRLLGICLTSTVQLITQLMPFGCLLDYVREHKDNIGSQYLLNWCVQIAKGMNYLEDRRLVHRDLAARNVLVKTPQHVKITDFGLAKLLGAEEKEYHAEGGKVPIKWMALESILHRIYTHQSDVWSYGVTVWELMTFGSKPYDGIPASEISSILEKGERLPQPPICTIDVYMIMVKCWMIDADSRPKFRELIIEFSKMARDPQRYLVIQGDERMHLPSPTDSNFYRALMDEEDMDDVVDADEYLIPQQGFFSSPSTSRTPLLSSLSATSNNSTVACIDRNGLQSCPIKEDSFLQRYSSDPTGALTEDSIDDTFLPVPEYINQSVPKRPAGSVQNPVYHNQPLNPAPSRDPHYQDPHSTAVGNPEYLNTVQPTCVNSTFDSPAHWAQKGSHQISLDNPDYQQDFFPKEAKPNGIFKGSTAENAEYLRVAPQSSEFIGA

N#CC1(c2ccccn2)CCN(Cc2cc(C(=O)O)c(=O)n3ccccc23)CC1 [MSD-M1PAM]
inhibition [1]: -7% | inhibition [2]: 1% | inhibition (Caspase-1 (Homo sapiens)): 7% | inhibition [3]: 15% | inhibition [4]: 15% | inhibition [5]: 6% | inhibition [6]: 19% | inhibition [7]: 10% | inhibition (Bos taurus): 24% | inhibition (Rattus norvegicus [8]): 9% | inhibition [9]: -2% | inhibition [10]: 14% | inhibition [11]: 11% | inhibition [12]: 29% | inhibition (Caspase-6 (Homo sapiens)): 13% | inhibition [13]: 9% | inhibition (Homo sapiens [14]): -3% | IC50 [15]: 91.5 µM | inhibition ([15]; Compound concentration 0.1 uM): -9% | inhibition ([15]; Compound concentration 1.0 uM): -3% | inhibition ([15]; Compound concentration 10.0 uM): 11% | inhibition ([15]; Compound concentration 100.0 uM): 52% | inhibition [16]: 5% | inhibition [17]: 0% | inhibition [18]: 6% | inhibition [19]: -6% | inhibition [20]: 8% | inhibition (Homo sapiens [21]): -3% | inhibition (Homo sapiens [22]): 8% | inhibition [23]: 2% | inhibition (Rattus norvegicus [24]): -10% | inhibition [25]: 9% | Agonism inflection point [26]: 7.38 µM | inhibition [27]: 14% | inhibition [28]: -8.07% | inhibition [29]: 6% | inhibition [30]: -9% | inhibition [31]: 3% | inhibition [32]: 0% | inhibition [33]: 21% | inhibition [34]: -7%
